How the values were obtained:
plasmin = biological target: T1, plasmin (Homo sapiens, UniProt P00747); assay: Plasmin activity assay (Plasmin Inhibitor Screening Assay Kit); assay type: biochemical
T1 construct: purchased abcam
Description: The potential activity of the studied compounds on the catalytic domain of plasmin was evaluated using the Plasmin Inhibitor Screening Assay Kit (abcam), following the manufacturer’s instructions. Briefly, the assay measures the inhibition of plasmin’s activity by the tested compounds through the cleavage of a fluorogenic peptide substrate. The assay was performed in flat-bottom 96-well plates. Plasmin was pre-incubated with different concentrations of the tested compounds for 10 min at RT prior to the addition of the peptide substrate. Plasmin’s activity was then measured by monitoring the increase in fluorescence intensity over time using a microplate reader (Infinite M Plex, Tecan, Männedorf, Switzerland) at an Ex/Em of 360/450 nm, every minute at 37 °C for 10 min. The slope of each sample was determined using the initial and final fluorescence values and their respective time points. (1) Fluorescence slope=RFU2−RFU1/t2−t1
The Relative Plasmin Inhibition was calculated according to the manufacturer’s instructions using a control slope with no compound (enzyme control):(2) Relative Plasmin Inhibition%=SlopeControl−SlopeCompound/SlopeControl×100

in vivo = details: dog
Description: In the case of dogs, one male and one female Beagle dog were selected for the study. A period of 5 days was used to allow dogs to acclimatize, and at the start of dosing, they were between 5 and 6 months old. Dogs were housed individually per sex in an environmentally controlled room, maintained at 24 ± 2 °C and 71.5 ± 4.5% relative humidity, on a 12–12 h light–dark cycle (beginning at 06:00 h) with 17 or 22 air changes per hour. Dogs were provided with 300 g feed every day and with water ad libitum.
Compound 5 was administered via an intravenous bolus injection through the cephalic vein of the forelimb, using a sterile needle attached to a graduated syringe. An initial dose level of 50 mg/kg b. wt. […] Following a washout period of 7 days, a dose of 75 mg/kg b. wt. […] A constant volume of 1 mL/kg b. wt. was used, with individual doses adjusted to the most recent recorded body weight of each animal. Dogs were observed twice daily for clinical, mortality, and morbidity signs throughout the study period of 7 days. Body weight was recorded on dosing day and every two days during the assay period. Additionally, a daily record of individual dog feed intake and leftover feed was maintained. Blood samples were obtained prior to dosing and on day 7. Blood was extracted either from the cephalic vein in the forelimb or the lateral saphenous vein in the hind limb. Around 2.0 mL of blood was collected in non-heparin centrifuge tubes for serum separation to conduct clinical chemistry estimations. An additional 0.5 mL of blood was collected in EDTA-containing vials for hematology analysis and another 0.5 mL of blood was collected in tubes containing a 3.2% sodium citrate solution for Prothrombin time determination. Dogs were fasted overnight, with only water allowed prior to blood collection. Hematology and clinical chemistry determinations are available upon request. Dogs were euthanized by an intravenous injection of barbiturate (thiopentone sodium 100 mg/kg b. wt.). Then, a comprehensive gross necropsy was performed. Dogs were first examined for external abnormalities. The cranial, thoracic, and abdominal cavities were then dissected, and a thorough examination of the organs was conducted. Specifically, the liver, testes, uterus, brain, and kidneys were collected and subjected to microscopic examination using paraffin-embedded tissue stained with hematoxylin-eosin.

T1 sequence (P00747 97-580 limits assumed): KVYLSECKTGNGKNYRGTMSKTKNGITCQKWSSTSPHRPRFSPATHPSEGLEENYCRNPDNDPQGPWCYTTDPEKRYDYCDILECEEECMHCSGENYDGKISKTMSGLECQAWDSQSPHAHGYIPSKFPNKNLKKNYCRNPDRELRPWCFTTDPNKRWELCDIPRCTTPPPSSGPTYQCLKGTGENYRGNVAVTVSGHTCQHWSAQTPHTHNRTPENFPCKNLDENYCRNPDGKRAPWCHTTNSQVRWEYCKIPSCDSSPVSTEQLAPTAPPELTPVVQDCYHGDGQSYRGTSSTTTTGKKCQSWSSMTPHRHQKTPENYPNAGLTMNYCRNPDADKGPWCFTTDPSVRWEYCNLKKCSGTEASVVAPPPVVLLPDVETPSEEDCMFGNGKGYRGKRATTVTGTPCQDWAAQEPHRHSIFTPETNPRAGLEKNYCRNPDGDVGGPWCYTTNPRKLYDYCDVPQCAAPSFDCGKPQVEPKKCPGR
T1 sequence (P00747 581-810 limits assumed): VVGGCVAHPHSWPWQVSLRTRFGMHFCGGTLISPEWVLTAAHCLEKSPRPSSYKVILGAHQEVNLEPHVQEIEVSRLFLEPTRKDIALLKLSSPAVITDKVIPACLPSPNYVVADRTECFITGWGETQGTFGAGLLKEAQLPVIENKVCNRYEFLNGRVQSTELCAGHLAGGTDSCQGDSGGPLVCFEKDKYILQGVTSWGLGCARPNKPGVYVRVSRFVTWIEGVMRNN

Compound `O=c1[nH]nc(-c2cn(C3CCNCC3)nn2)o1` [compound 5] has an inhibition at 5000 µM (plasmin; 5 mM, read-out: percentage of plasmin's inhibition) of 6.29%, an inhibition at 10000 µM (plasmin; 10 mM, read-out: percentage of plasmin's inhibition) of 23.9% and an inhibition at 15000 µM (plasmin; 15 mM, read-out: percentage of plasmin's inhibition) of 31.3%. For the same compound, the inhibition at 20000 µM (plasmin; 20 mM, read-out: percentage of plasmin's inhibition) was 65.3%, the IC50 (plasmin; inhibition of plasmin's cleavage of a synthetic substrate by 50%) was 17.9 ± 1.24 mM and the “increase of IC50 of plasmin's catalytic domain compared to IC50 in plasma clot lysis assay” value (plasmin; plasma clot lysis IC50 from Bosch-Sanz et al. [43]) was 1000 fold. The MTD at 7 days (in vivo; both, Beagle, iv) was 75 mg/kg, the “Microscopic Findings, kidneys” value (in vivo) was “Kidneys (bilateral): min ima l infiltration” and the “Microscopic Findings, testes” value (in vivo) was “Testes (bilateral): immature – present”. For the same compound, the “hematology and clinical chemistry parameters” value (in vivo) was “did not show any alteration” and the “terminal body and organ weight” value (in vivo) was “no treatment-related alterations”.
